test system: VEGF-stimulated HUVEC proliferation (Human Umbilical Vein Endothelial cells); assay: HUVEC Proliferation Assay; type: cell-based; details: VEGF 50 ng/mL final, 72 h incubation, CyQuant fluorescent dye, read-out: inhibited VEGF-stimulated HUVEC proliferation at a level (IC50)
Method: Human Umbilical Vein Endothelial cells are purchased from Clonetics, Inc., as cryopreserved cells harvested from a pool of donors. These cells, at passage 1, are thawed and expanded in EBM-2 complete medium, until passage 2 or 3. The cells are trypsinized, washed in DMEM+10% FBS+antibiotics, and spun at 1000 rpm for 10 min. Prior to centrifugation of the cells, a small amount is collected for a cell count. After centrifugation, the medium is discarded, and the cells are resuspended in the appropriate volume of DMEM+10% FBS+antibiotics to achieve a concentration of 3×10^5 cells/mL. Another cell count is performed to confirm the cell concentration. The cells are diluted to 3×10^4 cells/mL in DMEM+10% FBS+antibiotics, and 100 μL of cells are added to a 96-well plate. The cells are incubated at 37° C. for 22 h.
Prior to the completion of the incubation period, compound dilutions are prepared. Five-point, five-fold serial dilutions are prepared in DMSO, at concentrations 400-fold greater than the final concentrations desired. 2.5 μL of each compound dilution are diluted further in a total of 1 mL DMEM+10% FBS+antibiotics (400× dilution). Medium containing 0.25% DMSO is also prepared for the 0 μM compound sample. At the 22-hour timepoint, the medium is removed from the cells, and 100 μL of each compound dilution is added. The cells are incubated at 37° C. for 2-3 h.
During the compound pre-incubation period, the growth factors are diluted to the appropriate concentrations. Solutions of DMEM+10% FBS+antibiotics, containing either VEGF or bFGF at the following concentrations: 50, 10, 2, 0.4, 0.08, and 0 ng/mL are prepared. For the compound-treated cells, solutions of VEGF at 550 ng/mL or bFGF at 220 ng/mL for 50 ng/mL or 20 ng/mL final concentrations, respectively, are prepared since 10 μL of each will be added to the cells (110 μL final volume). At the appropriate time after adding the compounds, the growth factors are added. VEGF is added to one set of plates, while bFGF is added to another set of plates. For the growth factor control curves, the media on wells B4-G6 of plates 1 and 2 are replaced with media containing VEGF or bFGF at the varying concentrations (50-0 ng/mL). The cells are incubated at 37° C. for an additional 72 h.
At the completion of the 72 h incubation period, the medium is removed, and the cells are washed twice with PBS. After the second wash with PBS, the plates are tapped gently to remove excess PBS, and the cells are placed at −70° C. for at least 30 min. The cells are thawed and analyzed using the CyQuant fluorescent dye (Molecular Probes C-7026), following the manufacturer's recommendations. The plates are read on a Victor/Wallac 1420 workstation at 485 nm/530 nm (excitation/emission). Raw data are collected and analyzed using a 4-parameter fit equation in XLFit. IC50 values are then determined.

Row | Structure (SMILES) | IC50
1 | O=C(Nc1cc(OC[C@H]2CCCN2)cc(C(F)(F)F)c1)c1cccnc1NCc1ccc(F)cc1 [Example 55, (R) 2-(4-Fluoro-benzylamino)-N-[3-(pyrrolidin-2-ylmethoxy)-5-trifluoromethyl-phenyl]-nicotinamide] | < 50 nM
2 | O=C(Nc1cccc(C(F)(F)F)c1)c1cccnc1NCc1ccc(F)c(C#CCN2CCOCC2)c1 [Example 40, [2-({[4-Fluoro-3-(3-morpholin-4-ylprop-1-ynyl)phenyl]methyl}amino)(3-pyridyl)]-N-[3-(trifluoromethyl)phenyl]carboxamide] | < 50 nM
3 | CN1CCC[C@H]1COc1cc(NC(=O)c2cccnc2NCc2ccc(F)cc2)cc(C(F)(F)F)c1 [Example 63, (S)-2-(4-Fluoro-benzylamino)-N-[3-(1-methyl-pyrrolidin-2-ylmethoxy)-5-trifluoromethyl-phenyl]-nicotinamide] | < 50 nM
4 | O=C(Nc1cccc(C(F)(F)F)c1)c1cccnc1NCc1ccc(Cl)cc1 [Example 26, (2-{[(4-Chlorophenyl)methyl]amino}(3-pyridyl))-N-[3-(trifluoromethyl)phenyl]carboxamide] | < 50 nM
5 | CC(C)(C)c1ccc(NC(=O)c2cccnc2NCc2ccc(F)cc2)cc1OC[C@H]1CCCN1 [Example 57, (R) N-[4-tert-Butyl-3-(pyrrolidin-2-ylmethoxy)-phenyl]-2-(4-fluoro-benzylamino)-nicotinamide] | < 50 nM
6 | CC1(C)CN(C(=O)CN)c2cc(NC(=O)c3cccnc3NCc3ccc(F)cc3)ccc21 [Example 59, N-[1-(2-Amino-acetyl)-3,3-dimethyl-2,3-dihydro-1H-indol-6-yl]-2-(4-fluoro-benzylamino)-nicotinamide] | < 50 nM
7 | O=C(Nc1cccc(C(F)(F)F)c1)c1cccnc1NCc1ccc(F)cc1F [Example 27, (2-{[(2,4-Difluorophenyl)methyl]amino}(3-pyridyl))-N-[3-(trifluoromethyl)phenyl]carboxamide] | < 50 nM
8 | O=C(Nc1ccc(C(F)(F)F)cc1)c1cccnc1NCc1ccc(F)cc1 [Example 34, (2-{[(4-Fluorophenyl)methyl]amino}(3-pyridyl))-N-(4-(trifluoromethyl)phenyl]carboxamide] | < 50 nM
9 | O=C(Nc1cccc(C(F)(F)F)c1)c1cccnc1NCc1ccc(F)c(F)c1 [Example 29, (2-{[(3,4-Difluorophenyl)methyl]amino}(3-pyridyl))-N-[3-(trifluoromethyl)phenyl]carboxamide] | < 50 nM
10 | CC1(C)CNCc2cc(NC(=O)c3cccnc3NCc3ccc(F)cc3)ccc21 [Example 58, N-(4,4-Dimethyl-1,2,3,4-tetrahydro-isoquinolin-7-yl)-2-(4-fluoro-benzylamino)-nicotinamide] | < 50 nM
11 | O=C(Nc1cccc(C(F)(F)F)c1)c1cccnc1NCc1ccc(F)cc1 [Example 21, (2-{[(4-Fluorophenyl)methyl]amino}(3-pyridyl))-N-[3-(trifluoromethyl)phenyl]carboxamide] | < 50 nM
12 | CC(=O)N1CC(C)(C)Oc2ccc(NC(=O)c3cccnc3NCc3ccc(F)cc3)cc21 [Example 52, N-(4-Acetyl-2,2-dimethyl-3,4-dihydro-2H-benzo[1,4]oxazin-6-yl)-2-(4-fluoro-benzylamino)-nicotinamide] | < 50 nM
13 | CN1CCC(CN2CC(C)(C)c3ccc(NC(=O)c4cccnc4NCc4ccc(F)cc4)cc32)CC1 [Example 64, N-[3,3-Dimethyl-1-(1-methyl-piperidin-4-ylmethyl)-2,3-dihydro-1H-indol-6-yl]-2-(4-fluoro-benzylamino)-nicotinamide] | < 50 nM
14 | CC(C)c1ccc(NC(=O)c2cccnc2NCc2ccc(F)cc2)cc1 [Example 20, (2-{[(4-Fluorophenyl)methyl]amino}(3-pyridyl))-N-[4-(methylethyl)phenyl]carboxamide] | < 50 nM
15 | O=C(Nc1cc(OCC2CCNCC2)cc(C(F)(F)F)c1)c1cccnc1NCc1ccc(F)cc1 [Example 61, 2-(4-Fluoro-benzylamino)-N-[3-(piperidin-4-ylmethoxy)-5-trifluoromethyl-phenyl]-nicotinamide] | < 50 nM
16 | CC1(C)CNc2cc(NC(=O)c3cccnc3NCc3ccc(F)cc3)ccc2O1 [Example 62, N-(2,2-Dimethyl-3,4-dihydro-2H-benzo[1,4]oxazin-6-yl)-2-(4-fluoro-benzylamino)-nicotinamide] | < 50 nM
17 | CN(C)CC(=O)N1CC(C)(C)c2ccc(NC(=O)c3cccnc3NCc3ccc(F)cc3)cc21 [Example 46, N-[1-(2-Dimethylamino-acetyl)-3,3-dimethyl-2,3-dihydro-1H-indol-6-yl]-2-(4-fluoro-benzylamino)-nicotinamide] | < 50 nM
18 | CC1(C)CN(C2CCNCC2)c2cc(NC(=O)c3cccnc3NCc3ccc(F)cc3)ccc21 [Example 60, N-(3,3-Dimethyl-1-piperidin-4-yl-2,3-dihydro-1H-indol-6-yl)-2-(4-fluoro-benzylamino)-nicotinamide] | < 50 nM
19 | O=C(Nc1cccc(C(F)(F)F)c1)c1cccnc1NCc1ccc(Br)cc1 [Example 25, (2-{[(4-Bromophenyl)methyl]amino}(3-pyridyl))-N-[3-(trifluoromethyl)phenyl]carboxamide] | < 50 nM
20 | CN(C)CCCc1cc(NC(=O)c2cccnc2NCc2ccc(F)cc2)cc(C(F)(F)F)c1 [Example 35, N-{3-[3-(Dimethylamino)propyl]-5-(trifluoromethyl)phenyl}(2-{[(4-fluorophenyl)methyl]amino}(3-pyridyl))carboxamide] | < 50 nM
21 | CCC(C)c1ccc(NC(=O)c2cccnc2NCc2ccc(F)cc2)cc1 (centres unmarked) [Example 16, N-(4-sec-butylphenyl)-2-[(4-fluorobenzyl)amino]nicotinamide] | < 50 nM
22 | CN1CCC(C(C)(C)c2ccc(NC(=O)c3cccnc3NCc3ccc(F)cc3)cc2)CC1 [Example 65, 2-(4-Fluoro-benzylamino)-N-{4-[1-methyl-1-(1-methyl-piperidin-4-yl)-ethyl]-phenyl}-nicotinamide] | < 50 nM
23 | CC(C)(C)c1ccc(NC(=O)c2cccnc2NCc2ccc(F)cc2)cc1OCC1CCNCC1 [Example 56, N-[4-tert-Butyl-3-(piperidin-4-ylmethoxy)-phenyl]-2-(4-fluoro-benzylamino)-nicotinamide] | < 50 nM
24 | O=C(Nc1ccc(C(F)(F)F)c(OCCN2CCCC2)c1)c1cccnc1NCc1ccc(F)cc1 [Example 42, 2-(4-Fluoro-benzylamino)-N-[3-(2-pyrrolidin-1-yl-ethoxy)-4-trifluoromethyl-phenyl]-nicotinamide] | < 50 nM
25 | CN1CCC(N2CC(C)(C)c3ccc(NC(=O)c4cccnc4NCc4ccc(F)cc4)cc32)CC1 [Example 45, N-[3,3-Dimethyl-1-(1-methyl-piperidin-4-yl)-2,3-dihydro-1H-indol-6-yl]-2-(4-fluoro-benzylamino)-nicotinamide] | < 50 nM
26 | O=C(Nc1ccc(C(F)(F)C(F)(F)F)c(OC[C@H]2CCCN2)c1)c1cccnc1NCc1ccc(F)cc1 [Example 54, (R) 2-(4-Fluoro-benzylamino)-N-[3-(pyrrolidin-2-ylmethoxy)-4-pentafluoroethyl-phenyl]-nicotinamide] | < 50 nM
27 | CN1CC=C(c2cc(NC(=O)c3cccnc3NCc3ccc(F)cc3)ccc2C(C)(C)C)CC1 [Example 39] | < 50 nM
28 | O=C(Nc1ccc(Oc2ccccc2)cc1)c1cccnc1NCc1ccc2c(c1)OCO2 [Example 41, {2-[(2H-Benzo[d]1,3-dioxol-5-ylmethyl)amino](3-pyridyl)}-N-(4-phenoxyphenyl)carboxamide] | < 50 nM
29 | CC(C)(C)c1ccc(NC(=O)c2cccnc2NCc2ccc(F)cc2)cc1 [Example 17, N-(4-tert-Butylphenyl)-2-[(4-fluorobenzyl)amino]nicotinamide] | < 50 nM

Reference: US7101868B2, “Substituted arylamine derivatives and methods of use” (Amgen Inc., priority 2001, dated 2006)
